Experimental data as given in patent US20110172296A1, “MODULATION OF TRANSFORMING GROWTH FACTOR-BETA 1 EXPRESSION” (priority 2010, published 2011).
“Also recorded” adds a separate entry of the source.

System: bleomycin-induced skin fibrosis in C57BL/6 mice
Experiment: Bleomycin-induced murine model of skin fibrosis: skin thickness and breaking strength (Example 10)
Type: in vivo, mouse
Settings: for bleomycin-induced skin fibrosis and thickening: C57BL/6 mice, 5 mg intradermally twice a week, Day 18
Method: The ability of a TGF-beta1 ASO to reduce the induction of skin fibrosis in a bleomycin-induced model of dermal fibrosis was evaluated.
Two groups of 8 C57BL/6 mice each were treated with bleomycin every other day for 19 days. Bleomycin, at a concentration of 10 mg/mL in PBS and at a volume of 0.1 mL, was injected subcutaneously into the shaved backs of the mice. The injection site was divided into 4 quadrants. The 100 μL volume of bleomycin was divided into four 25 μL aliquots injected at 90 degree intervals, to the upper left, upper right, lower left, and lower right “quadrants”.
Each of the two groups was treated intradermally with PBS (vehicle) or a 5 mg dose of a TGF-beta1 antisense oligonucleotide (Oligo ID 433849) twice a week, starting from day 1 of bleomycin administration. Animals were sacrificed on Day 18 of the study. Skin thickness was measured by skin calipers on 6-mm punch biopsy specimens obtained from the upper back of the mice. Breaking strength of the skin was measured on the 6-mm punch biopsy specimens using a tensiometer (Series EG2 digital force gauge; Mark-10, Copiague, N.Y.), and the point of maximal stress before tearing of the biopsy specimen was recorded. All measurements were undertaken in a blinded manner.

Substance | bleomycin-induced skin fibrosis and thickening | bleomycin-induced skin fibrosis and thickening (listed as TGF-beta1 ASO) | skin thickness (bleomycin-treated mice, from 30 mm) | breaking strength of skin (bleomycin-treated mice, untreated skin typically 0.2 kg tension)
Oligo ID 433849: rat specific TGF-beta1 antisense oligonucleotide; SEQ ID NO. 166 (antisense GTCCTTAAATACAGCCCCGG; listed as DNA, chemistry not given here) [rat specific TGF-beta1 antisense oligonucleotide; 166] | significantly reduced | significantly reduced; also recorded: reduced the severity |  | 
bleomycin [reference compound] |  |  | 40-45 mm | approximately 0.47 kg
